Laboratory results published in patent US20050107289A1, “Anti-microbial peptides and compositions” (priority 2001, published 2005).
Structures can show the parent of a compound that is named as a salt. Where two headings read alike, the source gives them in different places. Non-standard residues stand in square brackets, D forms with d. Residues, ends and D or L forms follow the SMILES beside them. Nle = CCCC[C@H](N)C(=O)O

How the values were obtained:
[1] = test system: S. aureus (MRSA) ATCC 33591; format: cell-based, Staphylococcus aureus; conditions: Table 9
Outline: (§1)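 First, peptide stocks in 5% DMSO/9% sucrose were quantified and diluted 2-fold over roughly 400-2 μg/ml. Next, overnight cultures were diluted 4000-fold to ~2.5×10^5 cfu/ml and combined with peptide. Minimum inhibitory concentrations followed NCCLS broth macro- or microdilution procedures.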

[2] = test system: vancomycin-resistant Enterococus faecalis (VRE)(ATCC 51575); format: cell-based, Enterococcus faecalis; set-up: key to VRE (in vitro activity): peptide concentration in μg/ml (broth dilution assay); conditions: Table 9
Outline: as §1

murine red blood cells = experiment: Red blood cell hemolysis; format: cell-based, mouse
Outline: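 Washed murine erythrocytes at 5% in saline with 10% FBS were exposed to serial peptide dilutions for 30 min at 37° C. Supernatant absorbance at 560 nm was read, with saline as 0% and 1% Triton X-100 as 100% hemolysis.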

[3] = media b: cation adjusted Meuller Hinton broth (MHBII)
[4] = media c: Brain Heart Infusion (BHI)
[5] = media a: anti-microbial media-3 (AM-3)

| Structure (SMILES) | MRSA (in vitro activity) [1, 3] | VRE (in vitro activity) [2, 4] | RBC Hemolysis (HD50) (murine red blood cells) | MRSA (in vitro activity) [1, 5] | VRE (in vitro activity) ([2]; media a: AM-3) | VRE (in vitro activity) ([2]; media b: MHBII) |
| --- | --- | --- | --- | --- | --- | --- |
| CC(C)C[C@H]1NC(=O)[C@H](C)NC(=O)[C@@H](CC(C)C)NC(=O)[C@H](CCCCN)NC(=O)[C@@H](Cc2c[nH]cn2)NC(=O)[C@H](CCCCN)NC(=O)[C@@H](CC(C)C)NC(=O)[C@H](Cc2c[nH]c3ccccc23)NC1=O [SEQ ID NO:46, [KHKLALWL]] (cyclo(K[dH]K[dL]A[dL]W[dL])) | 25 | 50 | >200 |  |  |  |
| CC(C)C[C@@H]1NC(=O)[C@@H](Cc2c[nH]c3ccccc23)NC(=O)[C@H](CCC(N)=O)NC(=O)[C@@H](CCC(=O)O)NC(=O)[C@H](CCCCN)NC(=O)[C@@H](Cc2c[nH]c3ccccc23)NC1=O [SEQ ID NO:118, [KEQWLW]] (cyclo(K[dE]Q[dW]L[dW])) |  |  | >115 | >115 | >115 |  |
| C[C@H]1NC(=O)[C@H](CCCCN)NC(=O)[C@@H](Cc2ccccc2)NC(=O)[C@H](CCC(N)=O)NC(=O)[C@@H](C)NC(=O)[C@H](CCCCN)NC(=O)[C@@H](Cc2ccccc2)NC(=O)[C@H](Cc2c[nH]c3ccccc23)NC1=O [SEQ ID NO:97, [KAQFKAWF]] (cyclo(K[dA]Q[dF]K[dA]W[dF])) | 100 | 100 | >200 |  |  |  |
| CC(C)C[C@H]1NC(=O)[C@H](Cc2ccccc2)NC(=O)[C@@H](CC(C)C)NC(=O)[C@H](CCCCN)NC(=O)[C@@H]([C@H](C)O)NC(=O)[C@H](CCCCN)NC(=O)[C@@H](CC(C)C)NC(=O)[C@H](Cc2ccccc2)NC1=O [SEQ ID NO:65, [KTKLFLFL]] (cyclo(K[dT]K[dL]F[dL]F[dL])) | 60 | >240 | >240 |  |  |  |
| CC(C)C[C@@H]1NC(=O)[C@@H](Cc2c[nH]c3ccccc23)NC(=O)[C@H](CCC(N)=O)NC(=O)[C@@H](CCC(N)=O)NC(=O)[C@H](CCCCN)NC(=O)[C@@H](Cc2c[nH]c3ccccc23)NC1=O [SEQ ID NO:124, [KQQWLW]] (cyclo(K[dQ]Q[dW]L[dW])) |  |  | >35 | >35 | >35 |  |
| CC(C)C[C@H]1NC(=O)[C@H](CCCCN)NC(=O)[C@@H](Cc2c[nH]cn2)NC(=O)[C@H](CCC(N)=O)NC(=O)[C@@H](Cc2c[nH]cn2)NC(=O)[C@H](CCCCN)NC(=O)[C@@H](CC(C)C)NC(=O)[C@H](Cc2c[nH]c3ccccc23)NC1=O [SEQ ID NO:86, [KHQHKLWL]] (cyclo(K[dH]Q[dH]K[dL]W[dL])) | 100 | 100 | >200 |  |  |  |
| C[C@H]1NC(=O)[C@H](CCCCN)NC(=O)[C@@H](CC(N)=O)NC(=O)[C@H](CCC(N)=O)NC(=O)[C@@H](C)NC(=O)[C@H](CCCCN)NC(=O)[C@@H](CC(N)=O)NC(=O)[C@H](Cc2c[nH]c3ccccc23)NC1=O [SEQ ID NO:96, [KAQNKAWN]] (cyclo(K[dA]Q[dN]K[dA]W[dN])) | >200 | >200 | >200 |  |  |  |
| CC(C)C[C@H]1NC(=O)[C@H](Cc2c[nH]c3ccccc23)NC(=O)[C@@H](Cc2ccccc2)NC(=O)[C@H](CCCCN)NC(=O)[C@@H](Cc2ccccc2)NC(=O)[C@H](CCCCN)NC(=O)[C@@H](CC(C)C)NC(=O)[C@H](Cc2c[nH]c3ccccc23)NC1=O [SEQ ID NO:100, [KFWLWLKF]] (cyclo(K[dF]W[dL]W[dL]K[dF])) |  |  | >78 | 11 | 10 |  |
| CC(C)C[C@H]1NC(=O)[C@H](C)NC(=O)[C@@H](CC(C)C)NC(=O)[C@H](CCCCN)NC(=O)[C@@H](CO)NC(=O)[C@H](CCCCN)NC(=O)[C@@H](CC(C)C)NC(=O)[C@H](C)NC1=O [SEQ ID NO:53, [KSKLALAL]] (cyclo(K[dS]K[dL]A[dL]A[dL])) | 35 | >280 | >280 |  |  |  |
| CC(C)C[C@H]1NC(=O)[C@H](Cc2ccc(O)cc2)NC(=O)[C@@H](CCCCN)NC(=O)[C@H](CO)NC(=O)[C@@H](CO)NC(=O)[C@H](CCCCN)NC(=O)[C@@H](CC(C)C)NC(=O)[C@H](Cc2ccc(O)cc2)NC1=O [SEQ ID NO:83, [KSSKYLYL]] (cyclo(K[dS]S[dK]Y[dL]Y[dL])) | 85 | 170 | >340 |  |  |  |
| CC(C)C[C@H]1NC(=O)[C@H](C)NC(=O)[C@@H](CC(C)C)NC(=O)[C@H](CCCCN)NC(=O)[C@@H]([C@H](C)O)NC(=O)[C@H](CCCCN)NC(=O)[C@@H](CC(C)C)NC(=O)[C@H](C)NC1=O [SEQ ID NO:64, [KTKLALAL]] (cyclo(K[dT]K[dL]A[dL]A[dL])) | 80 | >160 | >160 |  |  |  |
| CC(C)C[C@H]1NC(=O)[C@H](Cc2c[nH]c3ccccc23)NC(=O)[C@@H](Cc2c[nH]c3ccccc23)NC(=O)[C@H](CCCCN)NC(=O)[C@@H](Cc2c[nH]cn2)NC(=O)[C@H](Cc2c[nH]c3ccccc23)NC(=O)[C@@H](CC(C)C)NC(=O)[C@H](Cc2c[nH]c3ccccc23)NC1=O [SEQ ID NO:43, [KWWLWLWH]] (cyclo(K[dW]W[dL]W[dL]W[dH])) |  |  | >23 | 13 | 17 |  |
| CCCC[C@@H]1NC(=O)[C@@H](CC(C)C)NC(=O)[C@H](CCCCN)NC(=O)[C@@H](CO)NC(=O)[C@H](CCCCN)NC(=O)[C@@H](CC(C)C)NC(=O)[C@H](CCCC)NC(=O)[C@@H](CC(C)C)NC1=O [SEQ ID NO:59, [KSKLNleLNleL]] (cyclo(K[dS]K[dL][Nle][dL][Nle][dL])) | 220 | >200 | >220 |  |  |  |
| CC(C)C[C@H]1NC(=O)[C@H](Cc2c[nH]c3ccccc23)NC(=O)[C@@H](Cc2c[nH]cn2)NC(=O)[C@H](Cc2c[nH]cn2)NC(=O)[C@@H](CO)NC(=O)[C@H](Cc2c[nH]c3ccccc23)NC(=O)[C@@H](CC(C)C)NC(=O)[C@H](Cc2c[nH]c3ccccc23)NC1=O [[SHHWLWLW-HCl] (15), SHHWLWLW] (cyclo([dS]H[dH]W[dL]W[dL]W)) | 6 | 6 | 40 |  |  |  |
| CC(C)C[C@H]1NC(=O)[C@H](Cc2c[nH]c3ccccc23)NC(=O)[C@@H](Cc2ccccc2)NC(=O)[C@H](CCCCN)NC(=O)[C@@H](Cc2ccccc2)NC(=O)[C@H](Cc2c[nH]c3ccccc23)NC(=O)[C@@H](CC(C)C)NC(=O)[C@H](Cc2c[nH]c3ccccc23)NC1=O [SEQ ID NO:40, [KFWLWLWF]] (cyclo(K[dF]W[dL]W[dL]W[dF])) |  |  | >44 | 33 | >44 |  |
| CC(C)C[C@H]1NC(=O)[C@H](Cc2c[nH]c3ccccc23)NC(=O)[C@@H](CCCCN)NC(=O)[C@H](CO)NC(=O)[C@@H](CO)NC(=O)[C@H](CCCCN)NC(=O)[C@@H](CC(C)C)NC(=O)[C@H](Cc2c[nH]c3ccccc23)NC1=O [SEQ ID NO:82, [KSSKWLWL]] (cyclo(K[dS]S[dK]W[dL]W[dL])) | 27 | 27 | >220 |  |  |  |
| CC(C)C[C@H]1NC(=O)[C@H](Cc2ccccc2)NC(=O)[C@@H](CCCCN)NC(=O)[C@H](CCCCN)NC(=O)[C@@H](CO)NC(=O)[C@H](CCCCN)NC(=O)[C@@H](CC(C)C)NC(=O)[C@H](Cc2ccccc2)NC1=O [SEQ ID NO:76, [KSKKFLFL]] (cyclo(K[dS]K[dK]F[dL]F[dL])) | 5 | 10 | 100 |  |  |  |
| CC(C)C[C@H]1NC(=O)[C@H](CCCCN)NC(=O)[C@@H](Cc2c[nH]cn2)NC(=O)[C@H](CCCCN)NC(=O)[C@@H](CC(C)C)NC(=O)[C@H](Cc2c[nH]c3ccccc23)NC(=O)[C@@H](CC(C)C)NC(=O)[C@H](Cc2ccccc2)NC1=O [SEQ ID NO:49, [KHKLFLWL]] (cyclo(K[dH]K[dL]F[dL]W[dL])) | 12 | 25 | 200 |  |  |  |
| CC(C)C[C@@H]1NC(=O)[C@@H](CCCNC(=N)N)NC(=O)[C@H](CCC(N)=O)NC(=O)[C@@H](CCCNC(=N)N)NC(=O)[C@H](Cc2c[nH]c3ccccc23)NC(=O)[C@@H](Cc2c[nH]c3ccccc23)NC(=O)[C@H](CC(C)C)NC(=O)[C@@H](Cc2c[nH]c3ccccc23)NC1=O [SEQ ID NO:69, [QRLWLWWR]] (cyclo(Q[dR]L[dW]L[dW]W[dR])) | 6.3 |  | 35 |  |  | 6.3 |
| CC(C)C[C@H]1NC(=O)[C@H](Cc2c[nH]c3ccccc23)NC(=O)[C@@H](CCCNC(=N)N)NC(=O)[C@H](CCCCN)NC(=O)[C@@H](Cc2c[nH]cn2)NC(=O)[C@H](CCCCN)NC(=O)[C@@H](CC(C)C)NC(=O)[C@H](Cc2c[nH]c3ccccc23)NC1=O [SEQ ID NO:74, [KRWLWLKH]] (cyclo(K[dR]W[dL]W[dL]K[dH])) |  |  | >130 | 5 | 7 |  |
| CC(C)C[C@H]1NC(=O)[C@H](Cc2c[nH]c3ccccc23)NC(=O)[C@@H](CCCNC(=N)N)NC(=O)[C@H](CCC(N)=O)NC(=O)[C@@H](CCCCN)NC(=O)[C@H](Cc2c[nH]c3ccccc23)NC(=O)[C@@H](CC(C)C)NC(=O)[C@H](Cc2c[nH]c3ccccc23)NC1=O [[KQRWLWLW-HCl] (8), cyclo-(D-Lys-Gln-D-Arg-Trp-D-Leu-Trp-D-Leu-Trp)] (cyclo([dK]Q[dR]W[dL]W[dL]W)) | 8 | 8 | 70 |  |  |  |
